# Measured values reported in patent US20110053964A1, “4-AMINOQUINAZOLINE DERIVATIVES AND METHODS OF USE THEREOF” (priority 2006, published 2011).
# What was measured:
# [1] = Pharmacokinetics in rats, oral dosing; conditions: rat, oral dosing 20 mg/kg, tosylate salt; data not shown
# [2] = Pharmacokinetics in rats, intravenous; assay type: in vivo, Sprague-Dawley rats; conditions: rat, single intravenous bolus 2 mg/kg; for half-life compared to lapatinib: tosylate salt (FIGS. 2 and 3)
# Method: Rats were anesthetized using pentobarbital (IP 40 mg/kg) prior to administration of compound. […] The rats were administered a single bolus 2 mg/kg dose of compound via jugular cannula, followed by a wash-out with saline. Blood samples (0.25 mL) were taken from the jugular at 5, 15 and 30 minutes and at 1, 2, 4, 6, 9, 12, and 24 hours post-dosing. Blood samples were centrifuged within 15 minutes of removal from the animal, centrifuged, and the plasma fraction removed and stored at −20° C. until analysis. Samples were analyzed by LC-MS.
Compound,half life compared to lapatinib [1],half-life compared to lapatinib [2],"half-life ([2]; Sprague-Dawley, tosylate salt, plasma) [h]"
"Cc1ccc(S(=O)(=O)O)cc1.Cc1ccc(S(=O)(=O)O)cc1.[2H]C([2H])(CS(C)(=O)=O)NC([2H])([2H])c1ccc(-c2ccc3ncnc(Nc4ccc(OCc5cccc(F)c5)c(Cl)c4)c3c2)o1 [Compound 101, [3-Chloro-4-(3-fluorobenzyloxy)phenyl]-(6-{5-[(2-methanesulfonyl-1,1-d2-ethylamino)-d2-methyl]-furan-2-yl}-quinazolin-4-yl)amine di-tosylate]",longer half lives than lapatinib,significantly longer half-lives than lapatinib,
"Cc1ccc(S(=O)(=O)O)cc1.Cc1ccc(S(=O)(=O)O)cc1.[2H]C([2H])(NC([2H])([2H])C([2H])([2H])S(=O)(=O)C([2H])([2H])[2H])c1ccc(-c2ccc3ncnc(Nc4ccc(OCc5cccc(F)c5)c(Cl)c4)c3c2)o1 [Compound 102, [3-Chloro-4-(3-fluoro-benzyloxy)-phenyl]-(6-{5-[(2-d3-methanesulfonyl-1,1,2,2-4-ethylamino)-d2-methyl]-furan-2-yl}-quinazolin-4-yl)amine di-tosylate]",longer half lives than lapatinib,significantly longer half-lives than lapatinib,
"CS(=O)(=O)CCNCc1ccc(-c2ccc3ncnc(Nc4ccc(OCc5cccc(F)c5)c(Cl)c4)c3c2)o1.Cc1ccc(S(=O)(=O)O)cc1 [Lapatinib, [3-Chloro-4-(3-fluorobenzyloxy)phenyl](6-{5-[(2-methanesulfonylethylamino)-methyl]furan-2-yl}-quinazolin-4-yl)amine 4-toluenesulfonate salt, reference compound]",,,1 ± 0.05
